According to patent publication US20050181473A1, “Bacterial adpglucose pyrophospatase method for obtaining the latter and its use in the production of assay devices and in the obtention of transgenic plants and bacteria” (priority 2001, published 2005):
Entries after “also recorded” stand apart in the source; their conditions may differ. Like-named read-outs stand apart in the source and are kept apart here.

Molecular target: bacterial AGPPase (Escherichia coli, UniProt Q93K97, L2V/N6S)
Format: biochemical

Chain of bacterial AGPPase (Q93K97 whole entry L2V/N6S, looked up): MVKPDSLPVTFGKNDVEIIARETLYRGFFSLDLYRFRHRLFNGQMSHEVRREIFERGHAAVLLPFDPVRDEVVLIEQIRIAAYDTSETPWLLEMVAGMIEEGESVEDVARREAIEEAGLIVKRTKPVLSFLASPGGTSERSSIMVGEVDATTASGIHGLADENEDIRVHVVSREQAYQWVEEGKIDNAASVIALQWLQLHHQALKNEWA

Row | SMILES | hydrolysis / recognition as substrate by AGPPase (pH 7.5) | inhibition of AGPPase | further results
1 | Nc1nc2c(ncn2[C@@H]2O[C@H](COP(=O)(O)OP(=O)(O)O[C@H]3O[C@H](CO)[C@@H](O)[C@H](O)[C@@H]3O)[C@@H](O)[C@H]2O)c(=O)[nH]1 [GDPmannose] | does not recognize |  | 
2 | O=P(O)(O)O[C@H]1O[C@H](CO)[C@@H](O)[C@H](O)[C@H]1O [G1P, glucose-1-phosphate] | does not hydrolyze |  | 
3 | O=C[C@H](O)[C@@H](O)[C@H](O)[C@H](O)COP(=O)(O)O [G6P, glucose-6-phosphate] | does not hydrolyze |  | 
4 | [Mg+2] [magnesium] |  |  | requirement for optimum functioning of AGPPase: requires
5 | OCCS [β-mercaptoethanol] |  |  | AGPPase activity affected by reducing and chelating agents: adversely affected
6 | Nc1ncnc2c1ncn2[C@@H]1O[C@H](COP(=O)(O)OP(=O)(O)O[C@H]2O[C@H](CO)[C@@H](O)[C@H](O)[C@@H]2O)[C@@H](O)[C@H]1O [ADPmannose] | recognizes; also recorded: hydrolyzes |  | 
7 | Nc1ncnc2c1ncn2[C@@H]1O[C@H](COP(=O)(O)OP(=O)(O)O)[C@@H](O)[C@H]1O [ADP] |  | Inhibited | 
8 | Nc1ncnc2c1ncn2[C@@H]1O[C@H](COP(=O)(O)O)[C@@H](O)[C@H]1O [AMP] | does not hydrolyze | Inhibited | 
9 | Nc1ncnc2c1ncn2[C@@H]1O[C@H](COP(=O)(O)OP(=O)(O)OP(=O)(O)O)[C@@H](O)[C@H]1O [ATP] |  | Inhibited | 
10 | Nc1ncnc2c1ncn2[C@@H]1O[C@H](COP(=O)(O)OP(=O)(O)O[C@H]2O[C@H](CO)[C@@H](O)[C@H](O)[C@H]2O)[C@@H](O)[C@H]1O [ADPG, ADPglucose] | catalyzes the hydrolysis |  | 
11 | O=P(O)(O)OP(=O)(O)O [inorganic pyrophosphate] |  | Inhibited | 
12 | N[C@@H](CCC(=O)N[C@@H](CS)C(=O)NCC(=O)O)C(=O)O [reduced glutathione] |  |  | AGPPase activity affected by reducing and chelating agents: adversely affected
13 | O=P(O)(O)O [orthophosphate] |  | not | 
14 | O=C(O)[C@H](O)COP(=O)(O)O [3-phosphoglycerate] | does not hydrolyze | Inhibited | 
15 | O=[N+]([O-])c1ccc(OP(=O)(O)Oc2ccc([N+](=O)[O-])cc2)cc1 [bis-paranitrophenyl-phosphate] | does not hydrolyze |  | 
16 | O=C(O)[C@H]1O[C@H](OP(=O)(O)OP(=O)(O)OC[C@H]2O[C@@H](n3ccc(=O)[nH]c3=O)[C@H](O)[C@@H]2O)[C@H](O)[C@@H](O)[C@@H]1O [UDPglucuronic] | does not recognize |  | 
17 | N[C@@H](CCC(=O)O)C(=O)O [glutamate] |  |  | AGPPase activity affected by reducing and chelating agents: adversely affected
18 | N[C@@H](CS)C(=O)O [reduced cysteine] |  |  | AGPPase activity affected by reducing and chelating agents: adversely affected
19 | Nc1ncnc2c1ncn2[C@@H]1O[C@@H]2COP(=O)(O)O[C@H]2[C@H]1O [cyclic AMP] |  |  | hydrolysis / recognition as substrate by AGPPase (37° C., Tris-HCl 50 mM pH 7.5, 5 mM MgCl2): Nor does it hydrolyze
20 | O=C(O)CN(CCN(CC(=O)O)CC(=O)O)CC(=O)O [EDTA] |  |  | AGPPase activity affected by reducing and chelating agents: adversely affected
21 | Nc1ncnc2c1ncn2[C@@H]1O[C@H](COP(=O)(O)OP(=O)(O)OC[C@H]2OC(O)[C@H](O)[C@@H]2O)[C@@H](O)[C@H]1O (stereo partly drawn) [ADPribose] | recognizes; also recorded: hydrolyzes |  | 
22 | [O]=[Mo](=[O])([O-])[O-] [molybdate] |  | strongly inhibited; also recorded: Inhibited strongly | 
